Measured values reported in patent US9012443B2 (Amgen Inc., priority 2011, dated 2015).

Legend:
Nav 1.7 = Nav 1.7 (Homo sapiens (Human), UniProt Q15858); test: Nav 1.7 in vitro PX assay (PatchXpress whole cell voltage clamp); type: cell-based; conditions: 293 cells, human Nav1.7, partially inactivated state; read-out: Nav1.7 PX IC50 IP
Procedure, shortened: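 HEK293 cells stably expressing human Nav1.7, whole-cell voltage clamp on PatchXpress, held at potential giving 20–50% inactivation; current elicited by 20 msec pulse to −10 mV.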

Nav 1.5 = Nav 1.5 (Homo sapiens (Human), UniProt Q14524); test: Nav 1.5 in vitro PX assay (PatchXpress whole cell voltage clamp); type: cell-based; conditions: 293 cells stably transfected with Nav 1.5; second part of table; read-out: Nav1.5 PX IC50
Sequence of Nav 1.5 (Q14524 whole entry): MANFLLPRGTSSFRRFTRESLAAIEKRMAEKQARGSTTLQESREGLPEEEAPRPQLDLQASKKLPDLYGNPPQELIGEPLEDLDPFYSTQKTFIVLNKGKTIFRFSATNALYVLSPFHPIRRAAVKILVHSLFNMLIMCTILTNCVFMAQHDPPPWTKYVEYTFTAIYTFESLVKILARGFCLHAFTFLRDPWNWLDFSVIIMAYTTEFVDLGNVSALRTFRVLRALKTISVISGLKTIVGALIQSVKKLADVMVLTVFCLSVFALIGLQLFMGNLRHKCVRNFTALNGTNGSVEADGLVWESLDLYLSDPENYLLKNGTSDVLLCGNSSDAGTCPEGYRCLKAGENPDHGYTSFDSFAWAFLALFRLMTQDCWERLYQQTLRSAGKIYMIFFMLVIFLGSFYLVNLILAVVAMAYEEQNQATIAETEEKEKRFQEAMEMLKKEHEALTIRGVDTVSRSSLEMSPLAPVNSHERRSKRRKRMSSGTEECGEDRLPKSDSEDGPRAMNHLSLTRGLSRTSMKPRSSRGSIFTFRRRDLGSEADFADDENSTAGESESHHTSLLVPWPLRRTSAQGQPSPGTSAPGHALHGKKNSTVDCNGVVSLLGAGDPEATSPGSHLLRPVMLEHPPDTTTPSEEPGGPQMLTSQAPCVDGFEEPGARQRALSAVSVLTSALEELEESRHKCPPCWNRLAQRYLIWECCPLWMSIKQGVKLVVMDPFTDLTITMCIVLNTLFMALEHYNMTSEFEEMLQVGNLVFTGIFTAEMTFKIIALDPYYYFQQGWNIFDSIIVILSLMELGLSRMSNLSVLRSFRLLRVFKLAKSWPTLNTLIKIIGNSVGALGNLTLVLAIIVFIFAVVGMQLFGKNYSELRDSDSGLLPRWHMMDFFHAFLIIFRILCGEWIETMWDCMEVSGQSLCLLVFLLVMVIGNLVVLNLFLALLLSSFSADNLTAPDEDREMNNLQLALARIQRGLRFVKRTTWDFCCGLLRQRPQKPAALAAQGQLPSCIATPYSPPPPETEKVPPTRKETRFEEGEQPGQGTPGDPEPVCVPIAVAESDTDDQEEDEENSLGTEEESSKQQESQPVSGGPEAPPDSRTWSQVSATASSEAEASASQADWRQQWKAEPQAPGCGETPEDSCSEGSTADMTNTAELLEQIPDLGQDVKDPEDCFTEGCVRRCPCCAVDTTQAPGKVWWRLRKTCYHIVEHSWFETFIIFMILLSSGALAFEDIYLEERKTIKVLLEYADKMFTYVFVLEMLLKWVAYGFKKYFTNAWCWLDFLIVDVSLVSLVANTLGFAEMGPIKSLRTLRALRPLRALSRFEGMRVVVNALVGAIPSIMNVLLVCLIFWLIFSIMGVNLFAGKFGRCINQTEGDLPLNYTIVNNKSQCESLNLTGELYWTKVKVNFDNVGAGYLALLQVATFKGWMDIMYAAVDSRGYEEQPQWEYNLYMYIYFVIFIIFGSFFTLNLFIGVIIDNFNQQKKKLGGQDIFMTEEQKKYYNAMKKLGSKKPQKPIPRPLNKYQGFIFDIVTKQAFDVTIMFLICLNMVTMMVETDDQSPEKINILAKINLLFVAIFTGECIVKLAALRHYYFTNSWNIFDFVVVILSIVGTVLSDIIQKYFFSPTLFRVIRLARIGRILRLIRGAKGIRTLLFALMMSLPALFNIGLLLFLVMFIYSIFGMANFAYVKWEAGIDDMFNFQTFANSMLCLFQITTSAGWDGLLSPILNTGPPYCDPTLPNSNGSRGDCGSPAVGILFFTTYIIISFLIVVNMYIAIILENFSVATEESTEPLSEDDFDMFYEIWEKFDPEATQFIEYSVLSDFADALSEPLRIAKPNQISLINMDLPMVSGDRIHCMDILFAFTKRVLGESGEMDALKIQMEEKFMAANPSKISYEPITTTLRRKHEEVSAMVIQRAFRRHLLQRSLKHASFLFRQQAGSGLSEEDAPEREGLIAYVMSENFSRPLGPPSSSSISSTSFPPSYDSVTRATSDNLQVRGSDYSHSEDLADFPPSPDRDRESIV
Protocol: Nav 1.5 In Vitro PX Assay
293 cells stably transfected with Nav 1.5 were recorded in whole cell voltage clamp mode with the PatchXpress automated electrophysiology system according the manufacturer's specifications (Molecular Devices, LLC, Sunnyvale, Calif.). Cells were held at a holding potential of −50 mV to inactivate sodium channels. To elicit sodium currents the voltage was changed to −120 mV to recover a portion of the channels, followed by delivery of test pulses of 20 msec duration to 0 mV, at 0.1 Hz. A single concentration of test compound was applied to cells for a duration of 5 minutes. Peak sodium current was measured at the end of the compound addition period to determine percent inhibition. A minimum of two cells were tested per concentration. IC50 curves were fitted to percent inhibition as a function of concentration.

Sequence of Nav 1.7 (Q15858 whole entry): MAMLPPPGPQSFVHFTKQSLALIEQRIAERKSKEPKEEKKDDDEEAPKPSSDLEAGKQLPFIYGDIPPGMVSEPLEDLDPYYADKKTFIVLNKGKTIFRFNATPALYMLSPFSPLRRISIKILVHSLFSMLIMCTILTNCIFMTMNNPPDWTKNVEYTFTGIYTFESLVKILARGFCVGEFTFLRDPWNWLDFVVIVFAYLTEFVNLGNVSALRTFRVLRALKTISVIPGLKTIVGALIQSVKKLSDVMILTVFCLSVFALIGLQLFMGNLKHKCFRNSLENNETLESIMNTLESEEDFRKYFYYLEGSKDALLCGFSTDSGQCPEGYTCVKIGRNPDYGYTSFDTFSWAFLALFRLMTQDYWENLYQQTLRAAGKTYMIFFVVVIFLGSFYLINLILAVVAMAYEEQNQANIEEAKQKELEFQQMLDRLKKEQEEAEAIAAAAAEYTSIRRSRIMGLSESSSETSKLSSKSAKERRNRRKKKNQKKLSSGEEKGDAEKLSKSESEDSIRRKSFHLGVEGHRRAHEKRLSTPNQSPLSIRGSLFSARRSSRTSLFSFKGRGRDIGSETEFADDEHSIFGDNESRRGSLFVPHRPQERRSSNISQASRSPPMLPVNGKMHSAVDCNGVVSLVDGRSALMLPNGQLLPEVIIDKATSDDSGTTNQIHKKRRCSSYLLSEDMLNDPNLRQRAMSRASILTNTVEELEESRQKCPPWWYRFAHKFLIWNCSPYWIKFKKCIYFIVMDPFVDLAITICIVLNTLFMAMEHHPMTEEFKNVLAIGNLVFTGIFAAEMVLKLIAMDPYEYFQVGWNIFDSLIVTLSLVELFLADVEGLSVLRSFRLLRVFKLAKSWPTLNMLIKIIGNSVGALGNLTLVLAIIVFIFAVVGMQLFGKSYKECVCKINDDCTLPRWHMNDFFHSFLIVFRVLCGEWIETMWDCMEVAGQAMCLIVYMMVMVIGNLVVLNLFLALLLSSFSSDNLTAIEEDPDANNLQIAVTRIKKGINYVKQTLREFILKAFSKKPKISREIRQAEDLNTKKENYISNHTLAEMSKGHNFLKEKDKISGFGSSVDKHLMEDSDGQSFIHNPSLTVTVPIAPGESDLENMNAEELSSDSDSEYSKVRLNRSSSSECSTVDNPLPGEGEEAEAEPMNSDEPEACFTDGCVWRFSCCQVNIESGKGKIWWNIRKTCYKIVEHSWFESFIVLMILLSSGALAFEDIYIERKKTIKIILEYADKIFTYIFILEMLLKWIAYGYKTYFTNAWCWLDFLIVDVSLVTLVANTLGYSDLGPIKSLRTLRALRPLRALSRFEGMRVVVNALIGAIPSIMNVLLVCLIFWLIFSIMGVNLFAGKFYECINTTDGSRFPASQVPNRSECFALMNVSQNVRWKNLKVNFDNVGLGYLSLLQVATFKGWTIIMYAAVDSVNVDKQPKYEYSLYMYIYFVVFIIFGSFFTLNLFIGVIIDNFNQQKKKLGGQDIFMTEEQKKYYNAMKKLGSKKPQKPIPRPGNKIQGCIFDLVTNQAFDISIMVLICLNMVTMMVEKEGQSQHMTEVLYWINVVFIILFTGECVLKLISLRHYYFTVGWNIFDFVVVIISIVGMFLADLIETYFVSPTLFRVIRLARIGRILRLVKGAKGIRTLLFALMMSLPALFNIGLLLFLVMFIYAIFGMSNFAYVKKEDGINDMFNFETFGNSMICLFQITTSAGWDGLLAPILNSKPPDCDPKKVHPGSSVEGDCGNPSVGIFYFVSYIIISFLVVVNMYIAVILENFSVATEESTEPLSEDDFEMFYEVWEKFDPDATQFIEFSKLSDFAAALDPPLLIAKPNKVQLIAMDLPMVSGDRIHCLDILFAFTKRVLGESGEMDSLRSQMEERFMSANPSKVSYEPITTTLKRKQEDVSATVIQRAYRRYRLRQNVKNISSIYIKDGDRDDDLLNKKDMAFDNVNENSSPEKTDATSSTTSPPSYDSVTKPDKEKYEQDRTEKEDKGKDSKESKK

Row | IC50 (Nav 1.7) | SMILES | IC50 (Nav 1.5)
1 | 161 nM | COc1cc(-c2ccc(F)cc2)ccc1-c1nccc2cc(S(=O)(=O)Nc3ccncn3)ccc12 [Example 350, 1-(4′-FLUORO-3-METHOXY-[1,1′-BIPHENYL]-4-YL)-N-(PYRIMIDIN-4-YL)ISOQUINOLINE-6-SULFONAMIDE] | > 30000 nM
2 | 76 nM | COc1cc(-c2cccc(C(F)(F)F)c2)ccc1-c1nccc2cc(S(=O)(=O)Nc3ccncn3)ccc12 [Example 351, 1-(3-METHOXY-3′-(TRIFLUOROMETHYL)-[1,1′-BIPHENYL]-4-YL)-N-(PYRIMIDIN-4-YL)ISOQUINOLINE-6-SULFONAMIDE] | 26600 nM
3 | 110 nM | COc1cc(-c2cccc(F)c2)ccc1-c1nccc2cc(S(=O)(=O)Nc3nncs3)ccc12 [Example 354, 1-(3′-FLUORO-3-METHOXY-[1,1′-BIPHENYL]-4-YL)-N-(1,3,4-THIADIAZOL-2-YL)ISOQUINOLINE-6-SULFONAMIDE 2,2,2-TRIFLUOROACETATE] | > 30000 nM
4 | 48 nM | COc1cc(-c2cc(F)cc(F)c2)ccc1-c1nccc2cc(S(=O)(=O)Nc3nncs3)ccc12 [Example 355, 1-(3′,5′-DIFLUORO-3-METHOXY-[1,1′-BIPHENYL]-4-YL)-N-(1,3,4-THIADIAZOL-2-YL)ISOQUINOLINE-6-SULFONAMIDE 2,2,2-TRIFLUOROACETATE] | > 30000 nM
5 | 394 nM | Cc1cc(-c2cccc(F)c2)ccc1-c1nccc2cc(S(=O)(=O)Nc3ccncn3)ccc12 [Example 358, 1-(3′-FLUORO-3-METHYL-[1,1′-BIPHENYL]-4-YL)-N-(PYRIMIDIN-4-YL)ISOQUINOLINE-6-SULFONAMIDE] | > 30000 nM
6 | 513 nM | COc1cc(CC(C)(C)C)ccc1-c1nccc2cc(S(=O)(=O)Nc3ccncn3)ccc12 [Example 360, 1-(2-METHOXY-4-NEOPENTYLPHENYL)-N-(PYRIMIDIN-4-YL)ISOQUINOLINE-6-SULFONAMIDE] | > 30000 nM
7 | 540 nM | COc1nc(-c2cccc(F)c2)ccc1-c1nccc2cc(S(=O)(=O)Nc3ccncn3)ccc12 [Example 363, 1-(6-(3-FLUOROPHENYL)-2-METHOXYPYRIDIN-3-YL)-N-(PYRIMIDIN-4-YL)ISOQUINOLINE-6-SULFONAMIDE] | > 30000 nM
8 | 36 nM | COc1cc(-c2cc(F)cc(F)c2)c(F)cc1-c1nccc2cc(S(=O)(=O)Nc3nncs3)ccc12 [Example 364, N-(1,3,4-THIADIAZOL-2-YL)-1-(2,3′,5′-TRIFLUORO-5-METHOXY-[1,1′-BIPHENYL]-4-YL)ISOQUINOLINE-6-SULFONAMIDE] | > 30000 nM
9 | 41 nM | COc1cc(-c2ccc(F)c(F)c2)c(F)cc1-c1nccc2cc(S(=O)(=O)Nc3nncs3)ccc12 [Example 365, N-(1,3,4-THIADIAZOL-2-YL)-1-(2,3′,4′-TRIFLUORO-5-METHOXY-[1,1′-BIPHENYL]-4-YL)ISOQUINOLINE-6-SULFONAMIDE] | > 30000 nM
10 | 48 nM | COc1cc(-c2cccc(F)c2)c(F)cc1-c1nccc2cc(S(=O)(=O)Nc3nncs3)ccc12 [Example 366, 1-(2,3′-DIFLUORO-5-METHOXY-[1,1′-BIPHENYL]-4-YL)-N-(1,3,4-THIADIAZOL-2-YL)ISOQUINOLINE-6-SULFONAMIDE] | > 30000 nM
11 | 122 nM | COc1cc(Cl)ccc1-c1nccc2cc(S(=O)(=O)Nc3ncns3)ccc12 [Example 368, 1-(4-CHLORO-2-METHOXYPHENYL)-N-(1,2,4-THIADIAZOL-5-YL)ISOQUINOLINE-6-SULFONAMIDE] | > 30000 nM
12 | 58 nM | COc1cc(-c2cccc(F)c2)ccc1-c1nccc2cc(S(=O)(=O)Nc3ncns3)ccc12 [Example 369, 1-(3′-FLUORO-3-METHOXY-[1,1′-BIPHENYL]-4-YL)-N-(1,2,4-THIADIAZOL-5-YL)ISOQUINOLINE-6-SULFONAMIDE] | > 30000 nM
13 | 153 nM | N#CCOc1cc(Cl)ccc1-c1nccc2cc(S(=O)(=O)Nc3nccs3)ccc12 [Example 373, 1-(4-CHLORO-2-(CYANOMETHOXY)PHENYL)-N-(THIAZOL-2-YL)ISOQUINOLINE-6-SULFONAMIDE 2,2,2-TRIFLUOROACETATE] | > 30000 nM
14 | 309 nM | N#CCOc1cc(C(F)(F)F)ccc1-c1nccc2cc(S(=O)(=O)Nc3nccs3)ccc12 [Example 374, 1-(2-(CYANOMETHOXY)-4-(TRIFLUOROMETHYL)PHENYL)-N-(THIAZOL-2-YL)ISOQUINOLINE-6-SULFONAMIDE] | > 30000 nM
15 | 544 nM | N#CCOc1ccccc1-c1nccc2cc(S(=O)(=O)Nc3nccs3)ccc12 [Example 375, 1-(2-(CYANOMETHOXY)PHENYL)-N-(THIAZOL-2-YL)ISOQUINOLINE-6-SULFONAMIDE 2,2,2-TRIFLUOROACETATE] | > 30000 nM
16 | 111 nM | COc1cc(C(F)(F)F)ccc1-c1ncc(F)c2cc(S(=O)(=O)Nc3ncns3)ccc12 [Example 392, 4-FLUORO-1-(2-METHOXY-4-(TRIFLUOROMETHYL)PHENYL)-N-(1,2,4-THIADIAZOL-5-YL)ISOQUINOLINE-6-SULFONAMIDE] | > 30000 nM
17 | 304 nM | COc1ccccc1-c1ncc(F)c2cc(S(=O)(=O)Nc3ncns3)ccc12 [Example 393, 4-FLUORO-1-(2-METHOXYPHENYL)-N-(1,2,4-THIADIAZOL-5-YL)ISOQUINOLINE-6-SULFONAMIDE] | > 30000 nM
18 | 338 nM | COc1cc(F)ccc1-c1ncc(F)c2cc(S(=O)(=O)Nc3ncns3)ccc12 [Example 394, 4-FLUORO-1-(4-FLUORO-2-METHOXYPHENYL)-N-(1,2,4-THIADIAZOL-5-YL)ISOQUINOLINE-6-SULFONAMIDE] | > 30000 nM
19 | 442 nM | COc1cc(F)ccc1-c1nccc2cc(S(=O)(=O)Nc3nccs3)ccc12 [Example 405, 1-(4-FLUORO-2-METHOXYPHENYL)-N-(THIAZOL-2-YL)ISOQUINOLINE-6-SULFONAMIDE] | > 30000 nM
20 | 456 nM | COc1ccccc1-c1nccc2cc(S(=O)(=O)Nc3nccs3)ccc12 [Example 406, 1-(2-METHOXYPHENYL)-N-(THIAZOL-2-YL)ISOQUINOLINE-6-SULFONAMIDE] | > 30000 nM
21 | 272 nM | COc1cc(C(F)(F)F)ccc1-c1nccc2cc(S(=O)(=O)Nc3nc(Cl)cs3)ccc12 [Example 419, N-(4-CHLOROTHIAZOL-2-YL)-1-(2-METHOXY-4-(TRIFLUOROMETHYL)PHENYL)ISOQUINOLINE-6-SULFONAMIDE] | > 30000 nM
22 | 786 nM | COc1cc(C(F)(F)F)ccc1-c1nccc2cc(S(=O)(=O)Nc3nc(C#N)cs3)ccc12 [Example 421, N-(4-CYANOTHIAZOL-2-YL)-1-(2-METHOXY-4-(TRIFLUOROMETHYL)PHENYL)ISOQUINOLINE-6-SULFONAMIDE] | > 30000 nM
23 | 77 nM | COc1cc(-c2ccccc2C)ccc1-c1nccc2cc(S(=O)(=O)Nc3ccncn3)ccc12 [Example 441, 1-(3-METHOXY-2′-METHYL-[1,1′-BIPHENYL]-4-YL)-N-(PYRIMIDIN-4-YL)ISOQUINOLINE-6-SULFONAMIDE] | > 30000 nM
24 | 87 nM | COc1cc(-c2cccc(C)c2)ccc1-c1nccc2cc(S(=O)(=O)Nc3ccncn3)ccc12 [Example 442, 1-(3-METHOXY-3′-METHYL-[1,1′-BIPHENYL]-4-YL)-N-(PYRIMIDIN-4-YL)ISOQUINOLINE-6-SULFONAMIDE] | > 30000 nM
25 | 280 nM | COc1cc(-c2ccc(C)cc2)ccc1-c1nccc2cc(S(=O)(=O)Nc3ccncn3)ccc12 [Example 443, 1-(3-METHOXY-4′-METHYL-[1,1′-BIPHENYL]-4-YL)-N-(PYRIMIDIN-4-YL)ISOQUINOLINE-6-SULFONAMIDE] | > 30000 nM
26 | 185 nM | COc1cc(-c2cccc(F)c2F)ccc1-c1nccc2cc(S(=O)(=O)Nc3ccncn3)ccc12 [Example 444, 1-(2′,3′-difluoro-3-methoxy-[1,1′-biphenyl]-4-yl)-N-(pyrimidin-4-yl)isoquinoline-6-sulfonamide] | > 30000 nM
27 | 218 nM | COc1cc(-c2ccc(F)cc2F)ccc1-c1nccc2cc(S(=O)(=O)Nc3ccncn3)ccc12 [Example 445, 1-(2′,4′-DIFLUORO-3-METHOXY-[1,1′-BIPHENYL]-4-YL)-N-(PYRIMIDIN-4-YL)ISOQUINOLINE-6-SULFONAMIDE] | > 30000 nM

Row | SMILES | IC50 (Nav 1.7) | IC50 (Nav 1.5)
28 | COc1cc(OCC(C)C)ccc1-c1nccc2cc(S(=O)(=O)Nc3ccncn3)ccc12 [Example 361, 1-(4-ISOBUTOXY-2-METHOXYPHENYL)-N-(PYRIMIDIN-4-YL)ISOQUINOLINE-6-SULFONAMIDE] | 463 nM | > 30000 nM
29 | COc1cc(-c2cc(F)cc(F)c2)ccc1-c1nccc2cc(S(=O)(=O)Nc3ccnc(C)n3)ccc12 [Example 370, 1-(3′,5′-DIFLUORO-3-METHOXY-[1,1′-BIPHENYL]-4-YL)-N-(2-METHYLPYRIMIDIN-4-YL)ISOQUINOLINE-6-SULFONAMIDE] | 813 nM | > 30000 nM
30 | COc1cc(-c2cc(F)cc(F)c2)ccc1-c1nccc2cc(S(=O)(=O)Nc3cc(C)ncn3)ccc12 [Example 371, 1-(3′,5′-DIFLUORO-3-METHOXY-[1,1′-BIPHENYL]-4-YL)-N-(6-METHYLPYRIMIDIN-4-YL)ISOQUINOLINE-6-SULFONAMIDE] | 545 nM | > 30000 nM
31 | N#CCOc1ccccc1-c1ncc(F)c2cc(S(=O)(=O)Nc3nccs3)ccc12 [Example 398, 1-(2-(CYANOMETHOXY)PHENYL)-4-FLUORO-N-(THIAZOL-2-YL)ISOQUINOLINE-6-SULFONAMIDE] | 197 nM | > 30000 nM
